Data reported in BindingDB's records for PubMed 37683364 (Institute of Respiratory Health).

Target: RAC-alpha serine/threonine-protein kinase (Homo sapiens, UniProt P31749)
Test: Inhibition of AKT phosphorylation in human OVCAR-8 cells assessed as reduction in pAKT level incubated for 24 hrs by Western blot analysis

RAC-alpha serine/threonine-protein kinase, sequence (P31749 whole entry): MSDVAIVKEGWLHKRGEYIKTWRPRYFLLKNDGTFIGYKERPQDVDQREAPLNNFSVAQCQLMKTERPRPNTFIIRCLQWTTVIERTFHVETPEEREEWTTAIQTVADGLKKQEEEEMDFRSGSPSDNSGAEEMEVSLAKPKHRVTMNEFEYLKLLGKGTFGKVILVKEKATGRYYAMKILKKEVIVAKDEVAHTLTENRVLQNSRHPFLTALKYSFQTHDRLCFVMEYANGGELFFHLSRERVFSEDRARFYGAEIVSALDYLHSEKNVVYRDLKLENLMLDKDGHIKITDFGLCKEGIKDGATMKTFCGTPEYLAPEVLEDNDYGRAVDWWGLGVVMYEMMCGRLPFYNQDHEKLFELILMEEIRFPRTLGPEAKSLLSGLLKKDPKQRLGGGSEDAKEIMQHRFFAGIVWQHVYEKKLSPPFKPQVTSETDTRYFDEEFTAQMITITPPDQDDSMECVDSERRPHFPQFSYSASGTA

| IC50 [nM] | Structure (SMILES) |
| --- | --- |
| 49 | Nc1ncc(-c2ccc3nccc(-c4ccncc4)c3c2)cc1S(N)(=O)=O |
| 7 | O=S(=O)(Nc1cncc(-c2ccc3nccc(-c4ccncc4)c3c2)c1)c1ccccc1F |
| 40 | O=C1NC(=O)C(Cc2ccc3nccc(-c4ccncc4)c3c2)S1 (centres undefined) |
| 76 | c1cc(-c2ccnc3ccc(-c4cnc5[nH]ncc5c4)cc23)ccn1 |
